pIC50: −log10 of the molar value.
Experiments:
GPR43 [1] = biological target: T1, GPR43 (Homo sapiens, UniProt O15552); test: Calcium mobilization assay without probenecid; format: cell-based; conditions: GPR43 stably expressing cells, triggered with sodium acetate at EC80, read-out: GPR43 assay without probenicid IC50
T1 construct: expressed in transfected cells
T1 sequence (O15552 1-330): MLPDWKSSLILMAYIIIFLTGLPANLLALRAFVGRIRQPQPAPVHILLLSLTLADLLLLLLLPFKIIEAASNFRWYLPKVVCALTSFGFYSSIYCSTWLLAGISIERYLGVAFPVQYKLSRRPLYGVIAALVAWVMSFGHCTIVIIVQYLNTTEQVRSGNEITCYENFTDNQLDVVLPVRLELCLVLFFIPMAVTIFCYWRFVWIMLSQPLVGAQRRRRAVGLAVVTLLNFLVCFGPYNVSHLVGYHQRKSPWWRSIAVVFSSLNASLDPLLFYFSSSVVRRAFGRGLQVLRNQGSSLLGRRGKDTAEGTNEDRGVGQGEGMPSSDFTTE
Procedure, shortened: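 In GPR43-expressing cells loaded with a Calcium 4 dye, antagonism was tested by a 15 min compound preincubation at 37 °C, then a sodium acetate challenge at EC80, with Ca-flux read on injection. For agonism, Ca-flux was recorded directly on compound injection.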

GPR43 [2] = biological target: T1, GPR43; test: Calcium mobilization assay with probenecid; format: cell-based; conditions: GPR43 stably expressing cells; triggered with sodium acetate at EC80; 2.5 mM probenecid; read-out: GPR43 assay with probenicid IC50
Procedure, shortened: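 Cells stably expressing GPR43 plated overnight at 37 °C, then loaded 2 h with Calcium 4 dye plus 2.5 mM probenecid. […]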

Structure (SMILES) | pIC50 (GPR43 [1]) | pIC50 (GPR43 [2])
CNC(=O)CN(Cc1ccc(Cl)cc1)C(=O)C1(C)CCN1C(=O)Cc1cc(C)cc(C)c1 (centres unmarked) [Compound 53, 1-[2-(3,5-Dimethyl-phenyl)-acetyl]-2-methyl-azetidine-2-carboxylic acid (4-chloro-benzyl)-methylcarbamoylmethyl-amide] | 6.30 to 7.00 | 6.30 to 7.00
Cc1cc(C)cc(CC(=O)N2CCC2(C)C(=O)N(CC(=O)N(C)C)Cc2ccc(Cl)cc2)c1 (centres unmarked) [Compound 54, 1-[2-(3,5-Dimethyl-phenyl)-acetyl]-2-methyl-azetidine-2-carboxylic acid (4-chloro-benzyl)-dimethylcarbamoylmethyl-amide] | 6.00 to 6.30 | < 6.00
COC(=O)[C@H](C)N(Cc1ccc(Cl)cc1)C(=O)C1(C)CCN1C(=O)Cc1cc(C)cc(C)c1 (stereo partly drawn) [Compound 55, (S)-2-((4-Chloro-benzyl)-{1-[2-(3,5-dimethyl-phenyl)-acetyl]-2-methyl-azetidine-2-carbonyl}-amino)-propionic acid methyl ester] | < 6.00 | < 6.00
COCCN(Cc1ccc(Cl)cc1)C(=O)C1(C)CCN1C(=O)Cc1cc(C)cc(C)c1 (centres unmarked) [Compound 56, 1-[2-(3,5-Dimethyl-phenyl)-acetyl]-2-methyl-azetidine-2-carboxylic acid (4-chloro-benzyl)-(2-methoxy-ethyl)-amide] | < 6.00 | < 6.00
CC1(C(=O)NCc2ccc(Cl)cc2)CCN1C(=O)Cc1csc2ccccc12 (centres unmarked) [Compound 57, 1-(2-Benzo[b]thiophen-3-yl-acetyl)-2-methyl-azetidine-2-carboxylic acid 4-chloro-benzylamide] | < 6.00 | < 6.00
CCOC(=O)CN(Cc1ccc(Cl)cc1)C(=O)C1(C)CCN1C(=O)Cc1csc2ccccc12 (centres unmarked) [Compound 58, [[1-(2-Benzo[b]thiophen-3-yl-acetyl)-2-methyl-azetidine-2-carbonyl]-(4-chloro-benzyl)-amino]-acetic acid ethyl ester] | 6.30 to 7.00 | 6.30 to 7.00
Cc1cc(C)cc(CC(=O)N2CCC2(C)C(=O)N(CC(=O)O)Cc2cccc(C)c2)c1 (centres unmarked) [Compound 59, [{1-[2-(3,5-Dimethyl-phenyl)-acetyl]-2-methyl-azetidine-2-carbonyl}-(3-methyl-benzyl)-amino]-acetic acid] | < 6.00 | < 6.00
COC(=O)CN(Cc1cccc(Cl)c1)C(=O)C1(C)CCN1C(=O)Cc1csc2ccccc12 (centres unmarked) [Compound 60, [[1-(2-Benzo[b]thiophen-3-yl-acetyl)-2-methyl-azetidine-2-carbonyl]-(3-chloro-benzyl)-amino]acetic acid methyl ester] | < 6.00 | 6.00 to 6.30
COC(=O)CCCN(Cc1ccc(Cl)cc1)C(=O)C1(C)CCN1C(=O)Cc1cc(C)cc(C)c1 (centres unmarked) [Compound 63, 4-((4-Chloro-benzyl)-{1-[2-(3,5-dimethyl-phenyl)-acetyl]-2-methyl-azetidine-2-carbonyl}-amino)-butyric acid methyl ester] | 6.30 to 7.00 | 6.30 to 7.00
CC1(C(=O)N(CC(=O)O)Cc2cccc(Cl)c2)CCN1C(=O)Cc1csc2ccccc12 (centres unmarked) [Compound 66, [[1-(2-Benzo[b]thiophen-3-yl-acetyl)-2-methyl-azetidine-2-carbonyl]-(3-chloro-benzyl)-amino]-acetic acid] | 6.30 to 7.00 | 6.00 to 6.30
Cc1cc(C)cc(CC(=O)N2CCC2(C)C(=O)N(CC#N)Cc2ccc(Cl)cc2)c1 (centres unmarked) [Compound 68, 1-[2-(3,5-dimethyl-phenyl)-acetyl]-2-methyl-azetidine-2-carboxylic acid (4-chloro-benzyl)-cyanomethyl-amide] | 6.30 to 7.00 | 6.30 to 7.00
Cc1cccc(CN(CC(=O)O)C(=O)C2(C)CCN2C(=O)Cc2csc3ccccc23)c1 (centres unmarked) [Compound 69, [[1-(2-Benzo[b]thiophen-3-yl-acetyl)-2-methyl-azetidine-2-carbonyl]-(3-methyl-benzyl)-amino]-acetic acid] | < 6.00 | 6.00 to 6.30
Cc1cc(C)cc(CC(=O)N2CCC2(C)C(=O)N(CCC(N)=O)Cc2ccc(Cl)cc2)c1 (centres unmarked) [Compound 71, 1-[2-(3,5-Dimethyl-phenyl)-acetyl]-2-methyl-azetidine-2-carboxylic acid (2-carbamoyl-ethyl)-(4-chloro-benzyl)-amide] | < 6.00 | 6.00 to 6.30
Cc1cc(C)cc(CC(=O)N2CCC2(C)C(=O)N(Cc2ccc(Cl)cc2)CC(C)O)c1 (centres unmarked) [Compound 72, 1-[2-(3,5-Dimethyl-phenyl)-acetyl]-2-methyl-azetidine-2-carboxylic acid (4-chloro-benzyl)-(2-hydroxy-propyl)-amide] | 6.00 to 6.30 | 6.30 to 7.00

The next lines start with the values.

pIC50 (GPR43 [1]) | pIC50 (GPR43 [2]) | Structure (SMILES)
< 6.00 | < 6.00 | Cc1cc(C)cc(CC(=O)N2CCC2(C)C(=O)N(Cc2ccc(Cl)cc2)[C@H](C)C(=O)O)c1 (stereo partly drawn) [Compound 74, (R)-2-((4-Chloro-benzyl)-{1-[2-(3,5-dimethyl-phenyl)-acetyl]-2-methyl-azetidine-2-carbonyl}-amino)-propionic acid]
6.30 to 7.00 | 6.30 to 7.00 | Cc1cc(C)cc(CC(=O)N2CCC2(C)C(=O)N(CC(N)=O)Cc2ccc(Cl)cc2)c1 (centres unmarked) [Compound 75, 1-[2-(3,5-Dimethyl-phenyl)-acetyl]-2-methyl-azetidine-2-carboxylic acid carbamoylmethyl-(4-chloro-benzyl)-amide]
< 6.00 | 6.30 to 7.00 | Cc1cc(C)cc(CC(=O)N2CCC2(C)C(=O)N(CCC#N)Cc2ccc(Cl)cc2)c1 (centres unmarked) [Compound 77, 1-[2-(3,5-Dimethyl-phenyl)-acetyl]-2-methyl-azetidine-2-carboxylic acid (4-chloro-benzyl)-(2-cyano-ethyl)-amide]
6.30 to 7.00 | 6.30 to 7.00 | CC1(C(=O)N(CC(=O)O)Cc2ccc(Cl)cc2)CCN1C(=O)Cc1coc2ccccc12 (centres unmarked) [Compound 78, [[1-(2-Benzofuran-3-yl-acetyl)-2-methyl-azetidine-2-carbonyl]-(4-chloro-benzyl)-amino]-acetic acid]
< 6.00 | < 6.00 | CC1(C(=O)N(CC(=O)O)Cc2ccc(Cl)cc2)CCN1C(=O)Cc1noc2ccccc12 (centres unmarked) [Compound 79, [[1-(2-Benzo[d]isoxazol-3-yl-acetyl)-2-methyl-azetidine-2-carbonyl]-(4-chloro-benzyl)-amino]-acetic acid]
< 6.00 | < 6.00 | Cc1cc(C)cc(CC(=O)N2CCC2(C)C(=O)N(CC(=O)NC(C)C)Cc2ccc(Cl)cc2)c1 (centres unmarked) [Compound 80, 1-[2-(3,5-Dimethyl-phenyl)-acetyl]-2-methyl-azetidine-2-carboxylic acid (4-chloro-benzyl)-(isopropylcarbamoyl-methyl)-amide]
6.30 to 7.00 | 6.30 to 7.00 | Cc1cc(C)cc(CC(=O)N2CC[C@]2(C)C(=O)N(CC(=O)O)Cc2ccc(Cl)cc2)c1 [Compound 82, ((4-Chloro-benzyl)-{(R)-1-[2-(3,5-dimethyl-phenyl)-acetyl]-2-methyl-azetidine-2-carbonyl}-amino)-acetic acid]
< 6.00 | < 6.00 | Cc1cc(C)cc(CC(=O)N2CCC2(C)C(=O)N(CC(=O)N2CCOCC2)Cc2ccc(Cl)cc2)c1 (centres unmarked) [Compound 83, 1-[2-(3,5-Dimethyl-phenyl)-acetyl]-2-methyl-azetidine-2-carboxylic acid (4-chloro-benzyl)-(2-morpholin-4-yl-2-oxo-ethyl)-amide]
6.30 to 7.00 | 6.30 to 7.00 | CC1(C(=O)N(CC#N)Cc2ccc(Cl)cc2)CCN1C(=O)Cc1csc2ccccc12 (centres unmarked) [Compound 84, 1-(2-Benzo[b]thiophen-3-yl-acetyl)-2-methyl-azetidine-2-carboxylic acid (4-chloro-benzyl)-cyanomethyl-amide]
< 6.00 | 6.30 to 7.00 | O=C(O)CN(Cc1ccc(Cl)cc1)C(=O)C1(CO)CCN1C(=O)Cc1csc2ccccc12 (centres unmarked) [Compound 85, [[1-(2-Benzo[b]thiophen-3-yl-acetyl)-2-hydroxymethyl-azetidine-2-carbonyl]-(4-chloro-benzyl)-amino]-acetic acid]
6.30 to 7.00 | 7.00 to 11.00 | COC(=O)CCN(Cc1ccc(Cl)cc1)C(=O)C1(C)CCN1C(=O)Cc1csc2ccccc12 (centres unmarked) [Compound 86, 3-[[1-(2-Benzo[b]thiophen-3-yl-acetyl)-2-methyl-azetidine-2-carbonyl]-(4-chloro-benzyl)-amino]-propionic acid methyl ester]
6.00 to 6.30 | 6.00 to 6.30 | CCOC(=O)CCCN(Cc1ccc(Cl)cc1)C(=O)C1(C)CCN1C(=O)Cc1csc2ccccc12 (centres unmarked) [Compound 87, 4-[[1-(2-Benzo[b]thiophen-3-yl-acetyl)-2-methyl-azetidine-2-carbonyl]-(4-chloro-benzyl)-amino]-butyric acid ethyl ester]
6.30 to 7.00 | 6.30 to 7.00 | CC1(C(=O)N(CCC(=O)O)Cc2ccc(Cl)cc2)CCN1C(=O)Cc1csc2ccccc12 (centres unmarked) [Compound 88, 3-[[1-(2-Benzo[b]thiophen-3-yl-acetyl)-2-methyl-azetidine-2-carbonyl]-(4-chloro-benzyl)-amino]-propionic acid]
< 6.00 | < 6.00 | CN(Cc1ccc(Cl)cc1)C(=O)C1(C)CCN1C(=O)Cc1cn(C)c2ccccc12 (centres unmarked) [Compound 91, 2-Methyl-1-[2-(1-methyl-1H-indol-3-yl)-acetyl]-azetidine-2-carboxylic acid (4-chloro-benzyl)-methyl-amide]

Source: patent US8759334B2, “Compounds useful for the treatment of metabolic and inflammatory diseases” (Galapagos NV, priority 2011, dated 2014)
